# Data published in article PMC7764612 (Pharmaceuticals, 2020).
# Where “and” joins values, the source holds several entries; their conditions need not be identical. Equal values may be shown once. Entries after “also recorded” stand apart in the source; their conditions may differ.
# What was measured:
# in vitro = details: human
# TBEV Hypr strain = format: cell-based, tick-borne encephalitis virus
# TBEV Neudoerfl strain [1] = format: cell-based, tick-borne encephalitis virus
# TBEV Neudoerfl strain [2] = test: microbe, parasite or virus in culture; format: cell-based, tick-borne encephalitis virus; details: for IC50: Tick-borne encephalitis virus, A549, 72 h, read-out: IC50 (concentration to reduce infectious viral titers by 50%)
# TBEV E protein = format: cell-based, tick-borne encephalitis virus
SMILES,CC50 (in vitro),TBEV-induced cytopathic effect / rate of cell death (TBEV Hypr strain),Inhibition of TBEV propagation (size and number of plaques) (TBEV Neudoerfl strain [1]),Plaques detected in dose-response plaque reduction assay (TBEV Neudoerfl strain [1]),Reduction in the number of plaques (TBEV Neudoerfl strain [1]),Effect on TBEV titers in dose-response assay (TBEV Neudoerfl strain [2]),Reduction in viral titer (TBEV Neudoerfl strain [2]),SI (selectivity index: CC50/IC50) (TBEV Neudoerfl strain [2]),Virus detected in culture supernatant (viral titer) (TBEV Neudoerfl strain [2]),IC50 (TBEV Neudoerfl strain [2]),Production of TBEV E protein (Western blot) (TBEV E protein),melting point
CC(=O)OC[C@H]1O[C@@H](n2cc(CNC(=O)[C@H]3O[C@@H](n4ccc(=O)[nH]c4=O)[C@@H]4OC(C)(C)O[C@@H]43)nn2)[C@H](OC(C)=O)[C@@H](OC(C)=O)[C@H]1OC(C)=O [Compound 17],137 µM,,,,,,,,,,,
"CC(=O)OC[C@H]1O[C@@H](n2cc(COC[C@H]3O[C@@H](n4ccc(=O)[nH]c4=O)[C@H](O[Si](C)(C)C(C)(C)C)[C@@H]3O[Si](C)(C)C(C)(C)C)nn2)[C@H](OC(C)=O)[C@@H](OC(C)=O)[C@H]1OC(C)=O [Compound 21, 1-(2″,3″,4″,6″-tetra-O-acetyl-β-D-galactopyranosyl)-4-(2′,3′-di-O-tert-butyldimethylsilyl-uridine-5′-O-methyl)-[1,2,3]-triazole]",116 µM,nearly completely inhibited; also recorded: significantly increased cell survival,nearly a complete inhibition of TBEV propagation,no plaques were detected,92% and 62%,significantly reduced TBEV titers in a dose-dependent manner,10^4 fold,24.7,no virus was detected,4.7 µM,dose-dependent reduction; also recorded: greatly decreased at all tested concentrations,
CC(=O)OC[C@H]1O[C@@H](NC(=O)[C@H]2O[C@@H](n3ccc(=O)[nH]c3=O)[C@@H]3OC(C)(C)O[C@@H]32)[C@H](OC(C)=O)[C@@H](OC(C)=O)[C@@H]1OC(C)=O [Compound 13],129 µM,,,,,,,,,,,
"CC(=O)OC[C@H]1O[C@@H](n2cc(CNC(=O)[C@H]3O[C@@H](n4ccc(=O)[nH]c4=O)[C@H](O[Si](C)(C)C(C)(C)C)[C@@H]3O[Si](C)(C)C(C)(C)C)nn2)[C@H](OC(C)=O)[C@@H](OC(C)=O)[C@H]1OC(C)=O [Compound 19, 1-(2″,3″,4″,6″-tetra-O-acetyl-β-D-galactopyranosyl)-4-(2′,3′-di-O-tert-butyldimethylsilyl-uridine-5′-carbonylaminomethyl)-[1,2,3]-triazole]",77 µM,strongly reduced; also recorded: significantly increased cell survival,effectively inhibited virus propagation,,81%,significantly reduced TBEV titers in a dose-dependent manner,10^3–10^6 fold,5.1,,15.1 µM,dose-dependent reduction,
CC(=O)OC[C@H]1O[C@@H](n2cc(CNC(=O)[C@H]3O[C@@H](n4ccc(=O)[nH]c4=O)[C@@H]4OC(C)(C)O[C@@H]43)nn2)[C@H](OC(C)=O)[C@@H](OC(C)=O)[C@@H]1OC(C)=O [Compound 16],136 µM,,,,,,,,,,,
CC(=O)OC[C@H]1O[C@@H](NC(=O)[C@H]2O[C@@H](n3ccc(=O)[nH]c3=O)[C@@H]3OC(C)(C)O[C@@H]32)[C@H](OC(C)=O)[C@@H](OC(C)=O)[C@H]1OC(C)=O [Compound 14],114 µM,,,,,,,,,,,
"CC1(C)O[C@@H]2[C@H](O1)[C@@H](C(=O)N[C@@H]1O[C@H](COCc3ccccc3)[C@@H](OCc3ccccc3)[C@H](OCc3ccccc3)[C@H]1OCc1ccccc1)O[C@H]2n1ccc(=O)[nH]c1=O [Compound 15, N-(2″,3″,4″,6″-tetra-O-benzyl-β-D-galactopyranosyl)-2′,3′-O-isopropylidene-uridine-5′-amide]",153 µM,,,,,,,,,,,
"CC(=O)OC[C@H]1O[C@@H](n2cc(COC[C@H]3O[C@@H](n4ccc(=O)[nH]c4=O)[C@H](O[Si](C)(C)C(C)(C)C)[C@@H]3O[Si](C)(C)C(C)(C)C)nn2)[C@H](OC(C)=O)[C@@H](OC(C)=O)[C@@H]1OC(C)=O [Compound 20, 1-(2″,3″,4″,6″-tetra-O-acetyl-β-D-glucopyranosyl)-4-(2′,3′-di-O-tert-butyldimethylsilyl-uridine-5′-O-methyl)-[1,2,3]-triazole]",184 µM,nearly completely inhibited; also recorded: significantly increased cell survival,nearly a complete inhibition of TBEV propagation,no plaques were detected,96% and 75%,significantly reduced TBEV titers in a dose-dependent manner,10^3 fold,49.7,no virus was detected,3.7 µM,complete inhibition of viral protein synthesis,
"CC(=O)OC[C@H]1O[C@@H](OCc2cn(C[C@H]3O[C@@H](n4ccc(=O)[nH]c4=O)[C@@H]4OC(C)(C)O[C@@H]43)nn2)[C@H](OC(C)=O)[C@@H](OC(C)=O)[C@H]1OC(C)=O [Compound 23, 2′,3′-O-isopropylidene-5′-deoxy-5′-[4-(2″,3″,4″,6″-tetra-O-acetyl-β-D-galactopyranosyl-oxymethyl)-1,2-3-triazol-1-yl]uridine]",157 µM,,,,,,,,,,,101 to 105 °C
"CC(=O)OC[C@H]1O[C@@H](OCc2cn(C[C@H]3O[C@@H](n4ccc(=O)[nH]c4=O)[C@@H]4OC(C)(C)O[C@@H]43)nn2)[C@H](OC(C)=O)[C@@H](OC(C)=O)[C@@H]1OC(C)=O [Compound 22, 2′,3′-O-isopropylidene-5′-deoxy-5′-[4-(2″,3″,4″,6″-tetra-O-acetyl-β-D-glucopyranosyl-oxymethyl)-1,2-3-triazol-1-yl]uridine]",173 µM,,,,,,,,,,,108 to 110 °C
"CC(=O)OC[C@H]1O[C@@H](n2cc(CNC(=O)[C@H]3O[C@@H](n4ccc(=O)[nH]c4=O)[C@H](O[Si](C)(C)C(C)(C)C)[C@@H]3O[Si](C)(C)C(C)(C)C)nn2)[C@H](OC(C)=O)[C@@H](OC(C)=O)[C@@H]1OC(C)=O [Compound 18, 1-(2″,3″,4″,6″-tetra-O-acetyl-β-D-glucopyranosyl)-4-(2′,3′-di-O-tert-butyldimethylsilyl-uridine-5′-carbonylaminomethyl)-[1,2,3]-triazole]",69 µM,strongly reduced; also recorded: significantly increased cell survival,effectively inhibited virus propagation,,98%,significantly reduced TBEV titers in a dose-dependent manner,10^3–10^6 fold,7.4,,9.3 µM,dose-dependent reduction,
